From patent publication US20190134039A1, “ANTIVIRAL JAK INHIBITORS USEFUL IN TREATING OR PREVENTING RETROVIRAL AND OTHER VIRAL INFECTIONS” (EMORY UNIVERSITY, priority 2011, published 2019)
Read-outs that look alike come from different tables or passages of the source.

Assays:
[1] = system: HIV-1 containing L74V; assay: microbe, parasite or virus in culture; assay type: cell-based
[2] = system: HIV-1 containing A62V/V75I/F77L/F116Y/Q151M; assay: microbe, parasite or virus in culture; assay type: cell-based
[3] = system: Vero cells; assay: cells; conditions: Chlorocebus sabaeus, read-out: IC50 in Vero cells *MTT Assay
[4] = system: wild-type HIV-1xxLAI; assay: Antiviral potency in primary human lymphocytes, wild type; assay type: cell-based; conditions: Human immunodeficiency virus 1, Lymphocyte, xxLAI, primary human lymphocytes
[5] = system: activated PBM cells; assay type: cell-based, human
Text: The data is shown in FIG. 2, in terms of total cell number (10^6 cells) versus aM drug in medium.
The data is shown in FIG. 3, in terms of cell viability (%) versus aM drug in medium.

[6] = system: PHA + IL-2 PBM cells; assay: cells; conditions: Homo sapiens, PBMC, read-out: IC50 in PHA + IL-2 PBM cells *MTT Assay
[7] = system: HIV-2; assay: microbe, parasite or virus in culture; conditions: Human immunodeficiency virus 2, PBMC
[8] = system: PHA+IL-2 stimulated primary human lymphocytes; assay: Proliferation and viability of PHA+IL-2 stimulated primary human lymphocytes; assay type: cell-based; conditions: PHA+IL-2 stimulated lymphocytes, 5 days
Experimental: The effect of various Jak inhibitors on proliferation and viability of PHA or PHA+IL-2 stimulated primary human lymphocytes was evaluated using the techniques described above.
For all experiments, cells were incubated with media alone or drug-containing medium for 5 days prior to assessment of cell count and viability. Data are mean and standard deviations for at least three independent experiments conducted with at least 4 pooled donors, and duplicates within each experiment.

[9] = system: pSTAT3; assay: cells
[10] = system: HIV-1 containing M184V; assay: microbe, parasite or virus in culture; assay type: cell-based
[11] = system: PBM cells; assay: cells; conditions: Homo sapiens, PBMC, read-out: IC50 in PBM cells *Propidium Iodide assay
[12] = system: HIV-1LAI; assay: microbe, parasite or virus in culture; conditions: Human immunodeficiency virus 1, PBMC, in Homo sapiens
Text: PBM cells were isolated as follows: Lymphocytes were isolated from buffy coats derived from healthy donors obtained from Life South Laboratories (Dunwoody, Ga.). Activated lymphocytes were maintained for 72 hrs in medium that was supplemented with […] phytohemagglutinin (PHA) (Cape Cod associates, East Falmouth, Mass.). Media was comprised of RPMI media supplemented with 20% fetal calf serum, 1% penicillin/streptomyocin and 2% L-glutamine (Sigma Aldrich, San Jose, Calif.).
PBM cell infections: Testing was performed in duplicate with at least 3 independent assays. Cells were incubated in RPMI medium (HyClone, Logan, Utah) containing HR-IL2 (26.5 units/ml) and 20% fetal calf serum. Infections were performed by adding HIV-1LA1 followed by a further incubation at 37° C., 5% CO2, 1 hr prior to addition of drugs. Assays were performed in 24 well plates (BD Biosciences, Franklin Lakes, N.J.). One ml of supernatant was collected after 5 days in culture and then centrifuged at 12,000 rpm for 2 hr at 4° C. in a Jouan Br43i (Thermo Electron Corp., Marietta, Ohio). The product of the RT assay was quantified using a Packard harvester and direct beta counter and the data were analyzed as previously described (Schinazi et al, 1990).

[13] = system: acute infection in rhesus macaque macrophages; assay: cells; conditions: for EC90: read-out: Acute infection in rhesus macaque macrophages EC90
Text: (§1) The data (Shown in Table 5 below) are mean and standard deviations from at least three independent experiments.

[14] = system: acute infection in rhesus macaque lymphocytes; assay: cells; conditions: Macaca mulatta, Lymphocyte
Text: as §1

[15] = system: HIV-1BaL; assay: microbe, parasite or virus in culture; conditions: Human immunodeficiency virus 1, Macrophage, in Homo sapiens
Experimental: Macrophages were isolated as follows: Monocytes were isolated from buffy coats of HIV-1 negative, HBV/HCV-negative donors with density gradient centrifugation coupled with enrichment for CD14+ monocytes with Rosette Sep antibody cocktail (Stem Cell Technologies, Vancouver, British Columbia). Cells were seeded at a concentration of 1.0×10^6 cells/well for 1 hr at 37° C. and 5% CO2 to confer plastic adherence prior to repeated washes with 1×PBS. Macrophages were maintained in medium containing 100 U/ml macrophage colony-stimulating factor (m-CSF, R&D Systems, Minneapolis, Minn.), supplemented with 20% fetal calf serum (Atlanta Biologicals, Lawrenceville, Ga.) and 1% penicillin/streptomyocin (Invitrogen, Carlsbad, Calif.) for 7 days (37° C., 5% CO2) prior to testing.
Macrophage infections: Macrophages were cultured as described above for 7 days. […] 4 hrs after infection, virus was removed and drug-containing medium was returned to the cultures. Supernatants were collected on day 7 post-infection and HIV-1 p24 was quantified via ELISA (Zeptometrix Corporation, Buffalo, N.Y.). EC50 analysis was performed using CalcuSyn software (BioSoft Corporation, Cambridge, UK).

[16] = system: latent HIV-1; assay: Reactivation of latent HIV-1 in primary human macrophages (PMA, p24 ELISA); assay type: cell-based; conditions: drug applied during reactivation, removed thereafter, within 72 hr post reactivation
[17] = system: HIV-1 containing K65R; assay: microbe, parasite or virus in culture; assay type: cell-based
[18] = Human immunodeficiency virus 1, Lymphocyte

With `N#CC[C@H](C1CCCC1)n1cc(-c2ncnc3[nH]ccc23)cn1` [Jakafi, Ruxolitinib] the EC50 [1, 18] was 0.1 ± 0.2 µM, the EC90 [1, 18] was 3.2 ± 2.6 µM and the “FI50 (ratio of EC50 against mutant virus:EC50 against wild-type xxLAI)” value ([1]; L74V) was 0.5. For the same compound, the “FI90 (ratio of EC90 against mutant virus:EC90 against wild-type xxLAI)” value ([1]; L74V) was 0.5, the “FI50 (ratio of EC50 against mutant virus:EC50 against wild-type xxLAI)” value ([2]; A62V/V75I/F77L/F116Y/Q151M) was 0.1 and the “FI90 (ratio of EC90 against mutant virus:EC90 against wild-type xxLAI)” value ([2]; A62V/V75I/F77L/F116Y/Q151M) was 0.3. It also gave an EC50 [2, 18] of 0.03 ± 0.02 µM, an EC90 [2, 18] of 1.5 ± 1.5 µM and an IC50 [3] of 29.3 ± 3.7 µM. The EC50 ([4]; read-out: EC50) was 0.3 ± 0.3 µM, the EC90 ([4]; read-out: EC90) was 6.1 ± 7.6 µM and the “total cell proliferation (total cell number)” value [5] was “do not affect total cell proliferation”. For the same compound, the total cell viability [5] was “do not affect total cell viability”, the CC50 [6] was 3.1 ± 1.7 µM and the EC50 ([7]; read-out: Anti-HIV-2 EC50 in acutely infected PBM cells) was 0.02 ± 0.01 µM. The EC90 ([7]; read-out: Anti-HIV-2 EC90 in acutely infected PBM cells) was 0.4 ± 0.2 µM, the “proliferation versus cells exposed to media alone” value ([8]; 1.0 μM) was “significantly inhibited” and the “viability versus cells exposed to media alone” value ([8]; all concentrations) was “not significantly different”. The EC50 ([9]; read-out: EC50 pSTAT3) was less than 0.01 µM, the EC90 ([9]; read-out: EC90 pSTAT3) was 0.01 µM and the EC90 [10, 18] was 3.2 ± 2.3 µM. For the same compound, the “FI50 (ratio of EC50 against mutant virus:EC50 against wild-type xxLAI)” value ([10]; M184V) was 1.3, the “FI90 (ratio of EC90 against mutant virus:EC90 against wild-type xxLAI)” value ([10]; M184V) was 0.5 and the IC50 [11] was greater than 50 µM. It also gave an EC50 ([12]; read-out: Anti-HIV-1 EC50 in acutely infected PBM cells) of 0.1 ± 0.02 µM, an EC90 ([12]; read-out: Anti-HIV-1 EC90 in acutely infected PBM cells) of 4.7 ± 0.07 µM and an EC50 ([13]; Macaca mulatta, Macrophage, read-out: Acute infection in rhesus macaque macrophages EC50) of roughly 0.4 µM. The EC90 ([13]; Macaca mulatta, Macrophage) was roughly 4 µM, the EC90 [13] was 4.2 ± 1.3 µM and the EC50 ([14]; read-out: Acute infection in rhesus macaque lymphocytes EC50) was 0.09 ± 0.1 µM. It also gave an EC90 ([14]; read-out: Acute infection in rhesus macaque lymphocytes EC90) of 1.3 ± 0.8 µM, an EC50 ([15]; read-out: Anti-HIV-1 EC50 in acutely infected MΦ) of 0.3 ± 0.1 µM and an EC90 ([15]; read-out: Anti-HIV-1 EC90 in acutely infected MΦ) of 3.1 ± 1.8 µM. For the same compound, the “percent inhibition of reactivation of latent HIV-1 versus no drug control” value [16] was roughly 35%, the EC50 [17, 18] was 0.2 ± 0.3 µM and the EC90 [17, 18] was 8.5 ± 8.1 µM. The “FI50 (ratio of EC50 against mutant virus:EC50 against wild-type xxLAI)” value ([17]; K65R) was 0.8 and the “FI90 (ratio of EC90 against mutant virus:EC90 against wild-type xxLAI)” value ([17]; K65R) was 1.4.
